What was measured:
[1] = biological target: T1, γ-secretase (Homo sapiens, UniProt P49768); experiment: In vitro γ-secretase activity assay, Aβ40 production (ECL); format: biochemical
T1 construct: endogenous in cells
Experimental: (§1) FIG. 2. In vitro characterization of coumarin-dimer allosteric GSIs against various γ-secretase cleavage products. The potency of 7 unique coumarin-based γ-secretase inhibitors were evaluated for efficacy against γ-secretase-mediated production of Aβ40, Aβ42, Aβ38, and Notch. Additionally, the pan-GSI Compound E was also examined in these assays. The IC50 values were calculated from the dose response curves using a non-linear regression analysis in Prism software. IC50 values are presented with standard deviation (n=3 for each data point). The three β-amyloid-detection in vitro assays were modified from our previously reported assay (21) using a biotinylated substrate that eliminated the requirement of anti-β-amyloid biotinylated antibody. Ruthenylated antibodies that detected the -40, -42, or -38 cleavage site were incorporated to detect proteolysis indicative of γ-secretase activity. In vitro Notch assay utilized a recombinant transmembrane portion of the Notch peptide and anti-Notch1 SM320 antibody in conjunction with ruthenylated anti-rabbit secondary antibodies. Electrochemiluminescence was quantified on an Analyzer (BioVeris). The selectivity ratio for Aβ42 inhibition over Aβ40 and Notch are indicated in the two far right columns.
The assay protocol employed was a modified version of that described in Li et al., 2000, Proc. Nat'l Acad. Sci. USA 97:6183-643, incorporated herein by reference. Briefly, recombinant peptide substrate was incubated with γ-secretase (40 μg/ml) in the presence or absence of test compound. The reaction mixture contained 0.25% CHAPSO, 0.1 μg/μl BSA, protease inhibitor, 50 mM PIPES, pH 7.0, 5 mM MgCl2, 5 mM CaCl2 and 150 mM KCl. The reaction was incubated for 2.5 hr at 37° C. and stopped by adding RIPA buffer (150 mM NaCl, 1.0% NP-40, 0.5% sodium deoxycholate, 0.1% SDS, 50 mM Tris HCl, pH 8.0). The products were detected with various antibody combinations using electrochemiluminescence (ECL) technology as previously described in Li et al., 2000, Proc. Nat'l Acad. Sci. USA 97:6183-643; Lai et al., 2003, J. Biol. Chem. 278: 22475-22481; and Yin et al., 2007, J. Biol. Chem. 282:23639-23644. The amount of product was determined using synthetic peptide or recombinant standards.
(§2) Cell membranes and solubilized γ-secretase were prepared as described previously (36). The in vitro and cell γ-secretase assays detecting either Aβ38, Aβ40, or Aβ42 cleavage were performed similar as previously described (21, 36). Cleaved product was detected using ruthenylated antibodies that recognize specific APP cleavage sites (Aβ31-38*, G2-10*, or G2-11* antibody for Aβ38, Aβ40, or Aβ42 respectively). The Km and Vmax in the presence and absence of γ-secretase inhibitors were analyzed by non-linear curve fit using the software SigmaPlot 8.0 with the Michaelis-Menten equation (v=Vm [S]/(Km+[S]; v: initial rate; Vm: maximum velocity; Km: the Michaelis-Menten constant, S: substrate).

[2] = test system: cells stably transfected with APP; experiment: Cell-based assay for production of Aβ38, Aβ40 and Aβ42 peptides (Example 29, FIG. 1); conditions: increasing concentrations of compound
Experimental: The following cell-based assay can be used for assessing inhibitory activity of test compounds on γ-secretase activity on APP expressed in stably transfected cells. Cells such as HEK239 or N2A cells that stably express APP are incubated 24-48 hr. in medium to which is added γ-secretase with or without test compound. The conditioned medium is collected. Secreted Aβ peptides are detected by electrochemiluminescence (ECL) technology as previously described, for example, in Li et al., 2000, Proc. Nat'l Acad. Sci. USA 97:6183-643; Lai et al., 2003, J. Biol. Chem. 278: 22475-22481; and Yin et al., 2007, J. Biol. Chem. 282:23639-23644. Concentration of Aβ peptides can be calculated from standard curves that are generated using synthetic peptides using the ECL assay.
Results of a cell-based assay are provided in FIG. 1 in which cells stably transfected with APP were incubated in medium containing γ-secretase activity and the indicated amounts of compound 37.

[3] = biological target: T1, γ-secretase; experiment: In vitro γ-secretase activity assay, Aβ42 production (ECL); format: biochemical; conditions: in vitro inhibition of γ-secretase activity that generates Aβ42; 2.5 hr at 37° C., ECL detection
Experimental: as §1, with “The potency of 7 unique coumarin-based γ-secretase inhibitors were evaluated for efficacy against γ-secretase-mediated production of Aβ40, Aβ42, Aβ38, and Notch. Additionally, the pan-GSI Compound E was also examined in these assays.” left out, “IC50 values are presented with standard deviation (n=3 for each data point).” left out, “(BioVeris).” for “(BioVeris). The selectivity ratio for Aβ42 inhibition over Aβ40 and Notch are indicated in the two far right columns.”
Briefly, recombinant peptide substrate was incubated with γ-secretase (40 μg/ml) in the presence or absence of test compound. […] The reaction was incubated for 2.5 hr at 37° C. and stopped by adding RIPA buffer (150 mM NaCl, 1.0% NP-40, 0.5% sodium deoxycholate, 0.1% SDS, 50 mM Tris HCl, pH 8.0). […] The amount of product was determined using synthetic peptide or recombinant standards.
as §2

[4] = biological target: T1, γ-secretase; conditions: reference (22); cited from earlier work
[5] = biological target: T1, γ-secretase; experiment: Inhibition kinetic analysis in the in vitro γ-secretase activity assay; format: biochemical; conditions: APP-transmembrane domain substrate
Experimental: FIG. 4. Kinetic analysis of allosteric GSIs and evaluation of their effect on the γ-secretase active site architecture. (a) Kinetic analysis of CS1 was performed using our modified version of a previously reported in vitro γ-secretase activity assay. The inhibition kinetics were analyzed by using a non-linear curve fit with the Michaelis-Menten equation. Upper right inset: we replotted slopes against the inhibitor concentrations after performing double reciprocal conversion. (b) Schematic representation of the allosteric binding of the di-coumarin compounds to γ-secretase. This binding ultimately causes an alteration at the active site of γ-secretase. Black rectangle represents the coumarin-dimer compound. (c) The binding of L458 to the active site of γ-secretase and its interaction at various subpockets within the enzyme. […]
as §2, with “The in vitro and cell γ-secretase assays detecting either Aβ38, Aβ40, or Aβ42 cleavage were performed similar as previously described (21, 36).” left out

[6] = biological target: T2, γ-secretase active site (Homo sapiens, UniProt P49768); experiment: Photolabeling of the γ-secretase active site (PS1-NTF) in HeLa membrane with probes L646, GY4, JC8, L505; format: binding; conditions: L458 and Compound E at 2 μM, CS-1 up to 100 μM
T2 construct: endogenous in cells; host or cells: HeLa membrane
Experimental: FIG. 4. Kinetic analysis of allosteric GSIs and evaluation of their effect on the γ-secretase active site architecture. (a) Kinetic analysis of CS1 was performed using our modified version of a previously reported in vitro γ-secretase activity assay. The inhibition kinetics were analyzed by using a non-linear curve fit with the Michaelis-Menten equation. Upper right inset: we replotted slopes against the inhibitor concentrations after performing double reciprocal conversion. (b) Schematic representation of the allosteric binding of the di-coumarin compounds to γ-secretase. This binding ultimately causes an alteration at the active site of γ-secretase. Black rectangle represents the coumarin-dimer compound. (c) The binding of L458 to the active site of γ-secretase and its interaction at various subpockets within the enzyme. (d) Chemical structure of the four photoaffinity probes utilized in the characterization of CS-1 effect on active site architecture. Hydroxyethylamine and benzophenone moieties are marked by blue and red, respectively. (e) Evaluation of CS-1 effect on the photolabeling of four probes. […] (f) Evaluation of CS-2 effect on the active site photolabeling by L505 and GY4. (g) Effect of Compound E on active site photolabling. […] Blotting was performed for PS1-NTF. The photolabeling blots are representative and were performed in triplicate.
We hypothesized that the allosteric binding of the di-coumarin compounds alters the conformation of the active site of γ-secretase and thereby preferentially affects the Aβ42 site cleavage (FIG. 4b). This raised the technical issue of how to probe the contours of the enzymatic active site. Although the structure of γ-secretase has been determined by cryoelectron microscopy (23), the resolution attained is not sufficient to investigate subtle changes within the active site. Consequently, we developed a series of active-site directed inhibitors that incorporate a photoreactive benzophenone entity into varied positions. Using these photoreactive probes, we assessed the effect of the di-coumarin inhibitor binding on the active site of γ-secretase. Since the efficiency of photoinsertion depends on the orientation of the probe and the proximity of residues within the active site, conformational change of the active site can alter the orientation of the probe and contact residues and lead to altered cross-linking efficiencies. Therefore, multiple photoactivatable, active-site directed GSIs will provide a practical approach to evaluate the changes within the active site following allosteric di-coumarin binding.
L458 contains a hydroxyethylamine transition-state isostere that mimics the tetrahedral intermediate of aspartyl proteases and this moiety hydrogen bonds with the catalytic aspartate residues of γ-secretase (20). According to the nomenclature of Schechter and Berger (24), L458 contains the P2, P1, P1′, P2′ and P3′ residues that putatively bind to the S2, S1, S1′, S2′ and S3′ subsites, respectively, within the active site of γ-secretase (FIG. 4c). We have developed a series of biotinylated, photoactivatable inhibitors based on the core structure of L458 that allow us to probe the sub-pockets of the γ-secretase active site (3, 25-26). These inhibitors all have an individual benzophenone group incorporated into L458 at either the P2, P1, P1′, or P3′ position and are referred to as L646, GY4, JC8 and L505 (FIG. 4d). Each of these inhibitors interacts and labels the S2, S1, S1′, and S3′ subsites, respectively, within the γ-secretase complex (FIG. 4c-d).
HeLa membrane was incubated with CHAPSO detergent and photoaffinity probe in the presence or absence of excess L458 or CS-1. Labeled presenilin was isolated using streptavidin beads, separated by SDS-PAGE and subsequently western blotted using anti-PS1-NTF antibodies. Again, presenilin is believed to contain the active site of γ-secretase, therefore we examined PS1 photolabeling. […]

Row | Compound | IC50 ([1]; in vitro inhibition of γ-secretase activity that generates Aβ40, 2.5 hr at 37° C., ECL detection) [µM] | Aβ40/Aβ42 ratio ([1]; ratio of IC50 for Aβ40 to IC50 for Aβ42) | amount of Aβ38 secreted from the cells [2] | amount of Aβ40 secreted from the cells [2] | amount of Aβ42 secreted from the cells [2] | IC50 [3] [µM] | mode of inhibition when the C100 substrate is used [4] | mode of inhibition against APP-TM substrate [5] | effect on JC-8 photolabeling of PS1-NTF (S1′ subsite) [6] | effect on L646 photolabeling of PS1-NTF (S2 subsite) [6] | effect on GY-4 photolabeling of PS1-NTF (S1 subsite) ([6]; CS-2 at 100 μM) | effect on L505 photolabeling of PS1-NTF (S3′ subsite) ([6]; CS-2 at 100 μM)
1 | O=c1oc2ccccc2c(O)c1C(c1cc(F)c(F)c(F)c1)c1c(O)c2ccccc2oc1=O [Compound 37] | 0.6 | 3.0 | remain relatively constant | remain relatively constant | decrease | 0.2 | – | – | – | – | – | –
2 | CC(C)C[C@H](NC(=O)[C@H](Cc1ccccc1)C[C@@H](O)[C@H](Cc1ccccc1)NC(=O)OC(C)(C)C)C(=O)N[C@@H](Cc1ccccc1)C(N)=O [L-685,458] | – | – | – | – | – | – | non-competitive inhibitor | competitive inhibitor | completely blocked | completely blocked | completely blocked | completely blocked
